Among the test systems are CAKI-1 renal; ACHN renal; BT-549 breast; UACC-62 melanoma; UO-31 renal; IGROV1 ovarian; CCRF-CEM leukemia; NCI-H23 lung; RXF 393 renal; 786-0 renal; M14 melanoma; UACC-257 melanoma; HCT-15 colon; A549 NSCLC; MCF7 breast; K-562 leukemia; OVCAR-4 ovarian; NCI-H226 lung.
Holding throughout (assay): NCI tumour cell line growth inhibition, 48 h

SMILES strings stand for the structures.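 A five-concentration, 48-hour dose response in 96-well plates underlies each endpoint, interpolated linearly between surrounding concentrations. At the TGI there is no net growth.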 Bounds are passed on as bounds.

In the case of `COC(=O)C(Cc1c[nH]c2ccccc12)N=C1Nc2ccncc2S(=O)(=O)N1c1ccccc1` (configuration not stated), the TGI in the assay with CAKI-1 renal was over 100 µM; with ACHN renal it was over 100 µM; in the assay with BT-549 breast, over 100 µM; with UACC-62 melanoma it was 58.2 µM; in the assay with UO-31 renal, over 100 µM; with IGROV1 ovarian, 98.7 µM. For the same compound, the TGI in the assay on CCRF-CEM leukemia is 32.2 µM; in the assay with NCI-H23 lung it was over 100 µM; in the assay on RXF 393 renal, 56.8 µM; with 786-0 renal, over 100 µM; in the assay on M14 melanoma, over 100 µM; in the assay on UACC-257 melanoma, over 100 µM. Also, the TGI with HCT-15 colon was over 100 µM; in the assay on A549 NSCLC it was over 100 µM; with MCF7 breast, over 100 µM; in the assay with K-562 leukemia it was 51.8 µM; with OVCAR-4 ovarian it was 75.7 µM; in the assay with NCI-H226 lung it was 61.4 µM.
For the compound `CC(=O)C(I(OS(=O)(=O)c1ccc(C)cc1)c1ccccc1)=P(c1ccccc1)(c1ccccc1)c1ccccc1`, the TGI in the assay on CAKI-1 renal is over 100 µM; with ACHN renal, over 100 µM; with BT-549 breast, 46.3 µM; in the assay with UACC-62 melanoma, 17 µM; in the assay with UO-31 renal it was over 100 µM; in the assay with IGROV1 ovarian, 73.5 µM. The TGI was 78.3 µM with CCRF-CEM leukemia; 42.7 µM in the assay on NCI-H23 lung; over 100 µM in the assay with RXF 393 renal; over 100 µM with 786-0 renal; 59.3 µM in the assay with M14 melanoma; 59 µM with UACC-257 melanoma. Besides, the TGI is over 100 µM with HCT-15 colon; 72.8 µM with A549 NSCLC; over 100 µM in the assay with MCF7 breast; over 100 µM in the assay on K-562 leukemia; 37 µM in the assay on OVCAR-4 ovarian; 38.8 µM with NCI-H226 lung.
On to `O=C1NC(=O)C(Cc2ccccc2)(c2cccnc2)N1` (configuration not stated), for which the TGI with CAKI-1 renal, in the assay with ACHN renal, in the assay with BT-549 breast, in the assay on UACC-62 melanoma, in the assay with UO-31 renal and in the assay with IGROV1 ovarian was over 100 µM each time. Moreover, the TGI in the assay with CCRF-CEM leukemia, with NCI-H23 lung, in the assay with RXF 393 renal, in the assay with 786-0 renal, in the assay on M14 melanoma and with UACC-257 melanoma was over 100 µM throughout. Besides, the TGI with HCT-15 colon, with A549 NSCLC, in the assay on MCF7 breast, in the assay with K-562 leukemia, in the assay with OVCAR-4 ovarian and with NCI-H226 lung was over 100 µM in each case.
For the compound `CN(C)C=C1C(=O)c2c(Br)sc(Br)c2C1=O`, the TGI in the assay with CAKI-1 renal was determined as 36 µM; in the assay with ACHN renal, 93.7 µM; in the assay with BT-549 breast, 48.4 µM; in the assay with UACC-62 melanoma, 37.1 µM; with UO-31 renal, 47.5 µM; in the assay on IGROV1 ovarian, 46.8 µM. The TGI in the assay on CCRF-CEM leukemia is over 100 µM; in the assay on NCI-H23 lung it was 37.8 µM; with RXF 393 renal, 42.4 µM; with 786-0 renal, over 100 µM; in the assay with M14 melanoma, 33.8 µM; in the assay on UACC-257 melanoma it was 33 µM. Also, the TGI in the assay with HCT-15 colon was 54.7 µM; in the assay on A549 NSCLC it was over 100 µM; in the assay with MCF7 breast it was over 100 µM; with K-562 leukemia, 66.4 µM; in the assay on OVCAR-4 ovarian, 31.7 µM; in the assay on NCI-H226 lung, 33.3 µM.

Values taken from PubChem BioAssay (NCI).
